Assay results published in patent US6284768A, “Src family SH2 domain inhibitors” (Boehringer Ingelheim Pharmaceuticals, Inc., priority 1999, dated 2001).

Assays:
[1] = target: T1, p56lck GST-SH2 (lck SH2 domain) (Homo sapiens, UniProt P06239); experiment: Receptor-ligand equilibrium binding constants by surface plasmon resonance (biosensor), lck SH2 domain; conditions: Table 1, compounds of formula (II)
T1 construct: GST (N)

[2] = system: Inter-leukin 2 (IL-2) production by activated Human Primary T Lymphocytes; experiment: Primary T cell assay: inhibition of IL-2 production by activated human primary CD4 positive T lymphocytes; type: cell-based; conditions: Homo sapiens, CD4 positive, Table 5; mean IC50 value; CD4 positive T cells activated with anti-CD3/anti-CD28, IL-2 by ELISA; read-out: IC50 (blocking IL-2 production)
Experimental: Summary of Primary T Cell Assay.
Inhibitors of the lck SH2 domain were assayed for their ability to block Inter-leukin 2 (IL-2) production by activated Human Primary T Lymphocytes. Peripheral blood mononuclear cells were isolated from whole blood by centrifugation in ficoll-Pague partitioning medium. CD4 positive cells were purified using negative selection. […] The compounds, at the appropriate dilutions, were added, and the cells were incubated for 60 minutes at 37° C. The CD4 positive T cells were then activated by the addition of anti-CD3 (60 ng/mL), anti CD28 (500 ng/mL) and goat anti mouse IgG coated beads, and incubated overnight at 37° C. The cells were pelleted, and the supernatents assayed for IL-2 by ELISA.
As SH2 domain containing proteins are intracellular, any therapeutic agent must be able to cross biological membranes. […] These characteristics may be quantified by observing inhibition in IL-2 production in human blood CD4 positive T-lymphocytes after T cell receptor and CD28 cross-linking.

T1 sequence (P06239 127-224 limits assumed): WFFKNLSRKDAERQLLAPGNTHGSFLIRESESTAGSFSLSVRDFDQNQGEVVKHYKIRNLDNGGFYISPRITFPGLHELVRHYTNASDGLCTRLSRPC

| Structure (SMILES) | Kd [1] [µM] | IC50 [2] [µM] |
| --- | --- | --- |
| Cc1ccn(CC2CCCCC2)c(=O)c1NC(=O)C(Cc1ccc(C(C)(C)C(=O)O)cc1)NC(=O)Cc1ccc2ccccc2c1 (stereo not drawn) [Compound 195] | 1.1 | 63 |
| COc1ccc(Cn2ccc(C)c(NC(=O)[C@H](Cc3ccc(C(C)(C)C(=O)O)cc3)NC(=O)C(C)(C)c3cccc4ccccc34)c2=O)cc1 [Compound 119] | 3.6 | 52 |
| COc1ccc(Cn2ccc(C)c(NC(=O)C(Cc3ccc(C(C)(C)C(=O)O)cc3)NC(=O)C(C)(C)c3ccc(-c4ccccc4)cc3)c2=O)cc1 (stereo not drawn) [Compound 159] | 1.4 | 25 |
| CCC(CC)(C(=O)NC(Cc1ccc(C2(C(=O)O)CCCC2)cc1)C(=O)Nc1c(C)ccn(Cc2ccc(OC)cc2)c1=O)c1ccc2ccccc2c1 (stereo not drawn) [Compound 125] | > 15 | 29 |
| CCCCCCn1ccc(C)c(NC(=O)C(Cc2ccc(C(C)(C)C(=O)O)cc2)NC(=O)Cc2ccc3ccccc3c2)c1=O (stereo not drawn) [Compound 137] | 0.51 | 75 |
| CCCCCCCn1ccc(C)c(NC(=O)C(Cc2ccc(C(C)(C)C(=O)O)cc2)NC(=O)Cc2ccc3ccccc3c2)c1=O (stereo not drawn) [Compound 138] | 0.83 | 64 |
| CCCCCCn1ccc(C)c(NC(=O)C(Cc2ccc(C(C)(C)C(=O)O)cc2)NC(=O)Cc2ccc(C(F)(F)F)cc2)c1=O (stereo not drawn) [Compound 209] | 0.19 | 92 |

Second part, the molecule after the results:

| Kd [1] [µM] | IC50 [2] [µM] | Structure (SMILES) |
| --- | --- | --- |
| 2.2 | 70 | COc1ccc(Cn2c(C)cc(C)c(NC(=O)[C@H](Cc3ccc(C(C)(C)C(=O)O)cc3)NC(=O)Cc3ccc4ccccc4c3)c2=O)cc1 [Compound 219] |
| 0.33 | 78 | CCC(C(=O)N[C@@H](Cc1ccc(C(C)(C)C(=O)O)cc1)C(=O)Nc1c(C)ccn(Cc2ccc(OC)cc2)c1=O)c1ccc2ccccc2c1 (stereo partly drawn) [Compound 109] |
| 8.8 | 49 | CCOc1ccc(Cn2ccc(C)c(NC(=O)C(Cc3ccc(C(C)(C)C(=O)O)cc3)NC(=O)C(C)(C)c3cccc4ccccc34)c2=O)cc1 (stereo not drawn) [Compound 141] |
| 1.2 | 69 | CCc1cn(Cc2ccc(OC)cc2)c(=O)c(NC(=O)C(Cc2ccc(C(C)(C)C(=O)O)cc2)NC(=O)Cc2ccc3ccccc3c2)c1C (stereo not drawn) [Compound 222] |
| 0.78 | 112 | COc1ccc(Cn2ccc(C)c(NC(=O)[C@H](Cc3ccc(C(C)(C)C(=O)O)cc3)NC(=O)N(C)c3cccc4ccccc34)c2=O)cc1 [Compound 133] |
| 1.2 | 169 | CCCCCn1ccc(C)c(NC(=O)C(Cc2ccc(C(C)(C)C(=O)O)cc2)NC(=O)Cc2ccc3ccccc3c2)c1=O (stereo not drawn) [Compound 192] |
| 3.8 | 54 | COc1ccc(Cn2ccc(C)c(NC(=O)C(Cc3ccc(C(C)(C)C(=O)O)cc3)NC(=O)Cc3ccc4ccccc4c3)c2=O)cc1C (racemic) [Compound 149, 3-[2'-(R,S)-(2""-Naphthylacetyl)amino-3'-[4"-(1'"-carboxy-1"-methyl)ethyl]benzene]propanoylamino-1-(4-methoxy-3-methylbenzyl)-4-methyl-2-pyridone] |
| 1.3 | 35 | CCOc1ccc(Cn2ccc(C)c(NC(=O)C(Cc3ccc(C(C)(C)C(=O)O)cc3)NC(=O)Cc3ccc4ccccc4c3)c2=O)cc1 (stereo not drawn) [Compound 135] |
